Measured values reported in US20220218725A1, “METHODS AND MATERIALS FOR TREATING CANCER” (Mayo Foundation for Medical Education and Research, priority 2019, published 2022).
Where two headings read alike, the source gives them in different places.

Columns and labels:
A549 cells = experiment: Cell viability, Annexin V/PI assay; assay type: cell-based; conditions: A549 (Non-small cell lung cancer); 48 hours; KPT-330 0.1-1.0 μM, CS 1-3 mM, single agent or combination
Method: (§1) Cell lines were purchased from the cell line repositories ATCC (Manassas, Va.) or DSMZ (Braunschweig, Germany). These included MCL cell lines: JeKo-1, Mino; TCL cell lines: Karpas-299, SR-786; DLBCL cell lines: OCI-Ly1 (LY-1), OCI-Ly3 (LY-3), OCI-Ly19 (LY-19), SU-DHL-6 (DHL-6); MM cell lines: RPMI, U266, OPM2, Xgl, KMS2; ALL cell lines: CRL-1783; non-small cell lung cancer: NCI-H460, A549, HCC827; small cell lung cancer: H1048; sarcoma: Fuji, SW872. Cell lines were cultured according to instruction.
(§2) KPT-330 purchased from Selleckchem (cat no: S7252) was dissolved in DMSO while CS (Santa Cruz, Calif.S 2016-36-6), sodium salicylate (Sigma-Aldrich, cat no: S3007), acetyl salicylate (Sigma-Aldrich, cat no: CAS 50-78-2) was diluted in PBS. Ketorolac (Sigma-Aldrich, cat no: 1356665), Bortezomib (Selleckchem, cat no: S1013), gemcitabine (Sigma-Aldrich, cat no: G6423), Leptomycin-B (Sigma-Aldrich, cat no: L2913-2X) and KPT-185 (Selleckchem, cat no: S7125) were dissolved in DMSO. The concentration range of KPT-330 was 0.05-1.0 μM while CS was 1-3 mM were used for ex vivo treatment and incubation time ranged from 24 hours to 72 hours. For the PARP inhibitor assay, olaparib 10 μM (SelleckChem, cat no: AZD2281 Ku-0059436) was used.
(§3) The viability assessment for cell lines and primary patients samples were conducted with the Annexin V/PI method.

CRL-1873 (RS4-11 cells) = experiment: Cell viability, Annexin V/PI assay; assay type: cell-based; conditions: CRL-1873 (ALL); 48 hours; KPT-330 0.1-1.0 μM, CS 1-3 mM, single agent or combination
Method: as §1, §2, §3

FuJi cells = experiment: Cell viability, Annexin V/PI assay; assay type: cell-based; conditions: FuJi (Sarcoma); 48 hours; KPT-330 0.1-1.0 μM, CS 1-3 mM, single agent or combination
Method: as §1, §2, §3

HCC827 cells = experiment: Cell viability, Annexin V/PI assay; assay type: cell-based; conditions: HCC827 (Non-small cell lung cancer); 48 hours; KPT-330 0.1-1.0 μM, CS 1-3 mM, single agent or combination
Method: as §1, §2, §3

Karpas-299 cells = experiment: Cell viability, Annexin V/PI assay; assay type: cell-based; conditions: Karpas-299 (TCL); 48 hours; KPT-330 0.1-1.0 μM, CS 1-3 mM, single agent or combination
Method: as §1, §2, §3

OCI-Ly19 cells = experiment: Cell viability, Annexin V/PI assay; assay type: cell-based; conditions: OCI-Ly19 (DLBCL); 48 hours; KPT-330 0.1-1.0 μM, CS 1-3 mM, single agent or combination
Method: as §1, §2, §3

OPM2 cells = experiment: Cell viability, Annexin V/PI assay; assay type: cell-based; conditions: OPM2 (MM); 48 hours; KPT-330 0.1-1.0 μM, CS 1-3 mM, single agent or combination
Method: as §1, §2, §3

RPMI (MM cell line) = experiment: Cell viability, Annexin V/PI assay; assay type: cell-based; conditions: 48 hours, KPT-330 0.1-1.0 μM, CS 1-3 mM, single agent or combination
Method: as §1, §2, §3

SR-786 cells = experiment: Cell viability, Annexin V/PI assay; assay type: cell-based; conditions: SR-786 (TCL); 48 hours; KPT-330 0.1-1.0 μM, CS 1-3 mM, single agent or combination
Method: as §1, §2, §3

SW872 cells = experiment: Cell viability, Annexin V/PI assay; assay type: cell-based; conditions: SW872 (Sarcoma); 48 hours; KPT-330 0.1-1.0 μM, CS 1-3 mM, single agent or combination
Method: as §1, §2, §3

U266 cells = experiment: Cell viability, Annexin V/PI assay; assay type: cell-based; conditions: U266 (MM); 48 hours; KPT-330 0.1-1.0 μM, CS 1-3 mM, single agent or combination
Method: as §1, §2, §3

DHL6 cells = experiment: Cell viability, Annexin V/PI assay; conditions: DHL6 (DLBCL); 48 hours; KPT-330 0.1-1.0 μM, CS 1-3 mM, single agent or combination
Method: as §1, §2, §3

Nonmalignant BM MNC = experiment: Viability of nonmalignant cells, Annexin V/PI assay; assay type: cell-based, human; conditions: 48 h, KPT-330 0.05-0.5 μM, CS 1-3 mM
Excerpt: (§4) Primary patient samples were obtained. The mononuclear cells were obtained from bone marrow, spleen, peripheral blood and lymph nodes as follows. Freshly obtained tissue (lymph node, spleen, bone marrow) was placed in mesh screen and using a syringe plunger, the tissue was pressed into a petri dish. Samples were then rinsed through the screen using measured amounts of RPMI until all tissue has been pressed through. […] Subsequently the mononuclear cells were isolated via centrifugation in the presence of ficoll and this step was again repeated following washing the cells with RPMI media.
(§5) To isolate peripheral blood mononuclear cells (PBMCs), freshly obtained patient blood sample of patients were centrifuged in the present of ficoll and this step was repeated twice following washing the cells with PBS. Following isolating the mononuclear cells, the viability was assessed and ascertained proper viability above 80% prior to conduct respective experiments. Non-malignant cells were confirmed not to have a malignant condition by pathology review of the tissue.

Nonmalignant PBMC = experiment: as above; assay type: cell-based, human; conditions: 48 h, KPT-330 0.05-0.5 μM, CS 1-3 mM
Excerpt: as §4, §5

Nonmalignant splenic MNC = experiment: as above; assay type: cell-based, human; conditions: 48 h, KPT-330 0.05-0.5 μM, CS 1-3 mM
Excerpt: as §4, §5

[1] = as above; assay type: cell-based, human; conditions: human, KPT-330 0.05-0.5 μM, CS 1-3 mM, read-out: % viability normalized for respective controls
Excerpt: as §4, §5

Row | Compound | % viability normalized for respective controls (A549 cells) [%] | % viability normalized for respective controls (CRL-1873 (RS4-11 cells)) [%] | % viability normalized for respective controls (FuJi cells) [%] | % viability normalized for respective controls (HCC827 cells) [%] | % viability normalized for respective controls (Karpas-299 cells) [%] | % viability normalized for respective controls (OCI-Ly19 cells) [%] | % viability normalized for respective controls (OPM2 cells) [%] | % viability normalized for respective controls (RPMI (MM cell line)) [%] | % viability normalized for respective controls (SR-786 cells) [%] | % viability normalized for respective controls (SW872 cells) [%] | % viability normalized for respective controls (U266 cells) [%] | also measured
1 | C[N+](C)(C)CCO.O=C([O-])c1ccccc1O [CS, choline salicylate] | 94 | 91.5 | 85 | 90 | 80 | 88 | 98 | 85 | 100 | 88 | 93 | % viability normalized for respective controls (DHL6 cells): 101%; % viability normalized for respective controls (Nonmalignant BM MNC): 82%; % viability normalized for respective controls (Nonmalignant PBMC): 78%; % viability normalized for respective controls (Nonmalignant splenic MNC; Splenic MNC (sample of r39)): 82%; % viability normalized for respective controls (Nonmalignant splenic MNC; Splenic MNC (sample of r40)): 64%; % viability normalized for respective controls (Nonmalignant splenic MNC; Splenic MNC (sample of r41)): 76%; % viability normalized for respective controls (Nonmalignant splenic MNC; Splenic MNC (sample of r42)): 76%
2 | O=C(/C=C\n1cnc(-c2cc(C(F)(F)F)cc(C(F)(F)F)c2)n1)NNc1cnccn1 [KPT-330, (Z)-3-[3-[3,5-bis (trifluoromethyl)phenyl]-1,2,4-triazol-1-yl]-N′-pyrazin-2-ylprop-2-enehydrazide] | 101 | 79 | 93 | 78 | 88 | 57 | 82 | 87.5 | 91 | 82 | 75 | viability at 48 h ([1]; nonmalignant bone marrow mononuclear cells, BM MNC): 78%; viability at 48 h ([1]; nonmalignant peripheral blood mononuclear cells (PBMC)): 86%; viability at 48 h ([1]; nonmalignant splenic mononuclear cells, Splenic MNC (sample of r39)): 84%; viability at 48 h ([1]; nonmalignant splenic mononuclear cells, Splenic MNC (sample of r40)): 66%; viability at 48 h ([1]; nonmalignant splenic mononuclear cells, Splenic MNC (sample of r41)): 59%; viability at 48 h ([1]; nonmalignant splenic mononuclear cells, Splenic MNC (sample of r42)): 58%
